Laboratory results: patent US4068070A, “α-Cyanoamine compounds and a process for producing the same” (Fuji Chemical Industry Co., Ltd., priority 1974, dated 1978)

Tests used:
Format in all cases: in vivo, mongrel adult dogs
[1] = test system: coronary sinus out flow; test: Effects on coronary sinus out flow
Outline: (§1)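 Dog, mongrel, ~10 kg, thoracotomized, pentobarbital anesthesia. Dosing i.v. (brachial), vehicle CMC 0.2%, HCl pH 6 or saline. Coronary sinus outflow by electromagnetic flowmeter, coronary sinus pO2 by macro electrode, both via Morawitz cannulation.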

[2] = test system: coronary sinus oxygen tension; test: Effects on coronary sinus oxygen tension
Outline: as §1

[3] = test system: aortic blood flow; test: Effects on aortic blood flow
Outline: (§2)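 Open-chest, pentobarbital-anesthetized mongrel dogs (male and female, about 10 kg) received compounds intravenously via the brachial vein; vehicles were 0.2% CMC suspension, HCl solution (pH 6) or physiological saline. Mean arterial pressure came from a carotid-aortic cannula transducer, aortic flow from an electromagnetic flowmeter at the aortic root.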

[4] = test system: arterial mean blood pressure; test: Effects on arterial mean blood pressure
Outline: as §2

[5] = test system: heart rate; test: Effects on heart rate
Outline: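 Adult mongrel dogs of both sexes were anesthetized with pentobarbital and thoracotomized. Test agents, suspended or dissolved in 0.2% CMC, pH 6 HCl solution or saline, were injected intravenously into the brachial vein. Hemodynamic and coronary sinus parameters were then recorded.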

COc1ccc(C(C#N)N2CCN(CC=Cc3ccccc3)CC2)cc1OC (centres unmarked) [Compound D]
Changes(%) of basal values, coronary sinus out flow ([1]; 2.0 mg/kg i.v., 1 min): +1.6% | Changes(%) of basal values, coronary sinus out flow ([1]; 2.0 mg/kg i.v., 5 min): -3.1% | Changes(%) of basal values, coronary sinus out flow ([1]; 2.0 mg/kg i.v., 10 min): -1.0% | Changes(%) of basal values, coronary sinus out flow ([1]; 2.0 mg/kg i.v., 20 min): 0% | Changes(%) of basal values, coronary sinus out flow ([1]; 2.0 mg/kg i.v., 30 min): 0% | Changes(%) of basal values, coronary sinus out flow ([1]; 2.0 mg/kg i.v., 40 min): 0% | Changes(%) of basal values, coronary sinus out flow ([1]; 2.0 mg/kg i.v., imm.): +6.2% | Changes(%) of basal values, coronary sinus out flow ([1]; 6.0 mg/kg i.v., 1 min): +9.1% | Changes(%) of basal values, coronary sinus out flow ([1]; 6.0 mg/kg i.v., 5 min): -0.2% | Changes(%) of basal values, coronary sinus out flow ([1]; 6.0 mg/kg i.v., 10 min): -0.4% | Changes(%) of basal values, coronary sinus out flow ([1]; 6.0 mg/kg i.v., 20 min): -0.2% | Changes(%) of basal values, coronary sinus out flow ([1]; 6.0 mg/kg i.v., 30 min): 0% | Changes(%) of basal values, coronary sinus out flow ([1]; 6.0 mg/kg i.v., 40 min): 0% | Changes(%) of basal values, coronary sinus out flow ([1]; 6.0 mg/kg i.v., imm.): +23.0% | Changes(%) of basal values, coronary sinus out flow ([1]; 20.0 mg/kg i.v., 1 min): +49.3% | Changes(%) of basal values, coronary sinus out flow ([1]; 20.0 mg/kg i.v., 5 min): +9.1% | Changes(%) of basal values, coronary sinus out flow ([1]; 20.0 mg/kg i.v., 10 min): +8.4% | Changes(%) of basal values, coronary sinus out flow ([1]; 20.0 mg/kg i.v., 20 min): +8.0% | Changes(%) of basal values, coronary sinus out flow ([1]; 20.0 mg/kg i.v., 30 min): +5.7% | Changes(%) of basal values, coronary sinus out flow ([1]; 20.0 mg/kg i.v., 40 min): +3.0% | Changes(%) of basal values, coronary sinus out flow ([1]; 20.0 mg/kg i.v., imm.): +66.2% | Effects on coronary sinus out flow (in words) ([1]; i.v., anesthetized dogs): a marked increasing effect on coronary sinus out flow, which was proportioned to doses thereof and of long duration | Changes(%) of basal values, coronary sinus oxygen tension ([2]; 2.0 mg/kg i.v., 1 min): +2.7% | Changes(%) of basal values, coronary sinus oxygen tension ([2]; 2.0 mg/kg i.v., 5 min): +0.5% | Changes(%) of basal values, coronary sinus oxygen tension ([2]; 2.0 mg/kg i.v., 10 min): -1.0% | Changes(%) of basal values, coronary sinus oxygen tension ([2]; 2.0 mg/kg i.v., 20 min): -0.5% | Changes(%) of basal values, coronary sinus oxygen tension ([2]; 2.0 mg/kg i.v., 30 min): 0% | Changes(%) of basal values, coronary sinus oxygen tension ([2]; 2.0 mg/kg i.v., 40 min): 0% | Changes(%) of basal values, coronary sinus oxygen tension ([2]; 2.0 mg/kg i.v., imm.): +6.7% | Changes(%) of basal values, coronary sinus oxygen tension ([2]; 6.0 mg/kg i.v., 1 min): +14.0% | Changes(%) of basal values, coronary sinus oxygen tension ([2]; 6.0 mg/kg i.v., 5 min): +5.8% | Changes(%) of basal values, coronary sinus oxygen tension ([2]; 6.0 mg/kg i.v., 10 min): +1.0% | Changes(%) of basal values, coronary sinus oxygen tension ([2]; 6.0 mg/kg i.v., 20 min): -1.0% | Changes(%) of basal values, coronary sinus oxygen tension ([2]; 6.0 mg/kg i.v., 30 min): 0% | Changes(%) of basal values, coronary sinus oxygen tension ([2]; 6.0 mg/kg i.v., 40 min): 0% | Changes(%) of basal values, coronary sinus oxygen tension ([2]; 6.0 mg/kg i.v., imm.): +23.8% | Changes(%) of basal values, coronary sinus oxygen tension ([2]; 20.0 mg/kg i.v., 1 min): +43.8% | Changes(%) of basal values, coronary sinus oxygen tension ([2]; 20.0 mg/kg i.v., 5 min): -21.2% | Changes(%) of basal values, coronary sinus oxygen tension ([2]; 20.0 mg/kg i.v., 10 min): +8.4% | Changes(%) of basal values, coronary sinus oxygen tension ([2]; 20.0 mg/kg i.v., 20 min): +3.2% | Changes(%) of basal values, coronary sinus oxygen tension ([2]; 20.0 mg/kg i.v., 30 min): +2.0% | Changes(%) of basal values, coronary sinus oxygen tension ([2]; 20.0 mg/kg i.v., 40 min): +0.2% | Changes(%) of basal values, coronary sinus oxygen tension ([2]; 20.0 mg/kg i.v., imm.): +60.3% | Effects on coronary sinus oxygen tension (in words) ([2]; i.v., anesthetized dogs): a significant increase in coronary sinus oxygen tension, effect of which was of long duration | Changes (%) of basal values, aortic blood flow ([3]; 2.0 mg/kg i.v., 1 min): +3.3% | Changes (%) of basal values, aortic blood flow ([3]; 2.0 mg/kg i.v., 5 min): -0.8% | Changes (%) of basal values, aortic blood flow ([3]; 2.0 mg/kg i.v., 10 min): 0% | Changes (%) of basal values, aortic blood flow ([3]; 2.0 mg/kg i.v., 20 min): 0% | Changes (%) of basal values, aortic blood flow ([3]; 2.0 mg/kg i.v., 30 min): 0% | Changes (%) of basal values, aortic blood flow ([3]; 2.0 mg/kg i.v., 40 min): 0% | Changes (%) of basal values, aortic blood flow ([3]; 2.0 mg/kg i.v., imm.): +8.3% | Changes (%) of basal values, aortic blood flow ([3]; 6.0 mg/kg i.v., 1 min): +3.3% | Changes (%) of basal values, aortic blood flow ([3]; 6.0 mg/kg i.v., 5 min): -2.7% | Changes (%) of basal values, aortic blood flow ([3]; 6.0 mg/kg i.v., 10 min): +0.7% | Changes (%) of basal values, aortic blood flow ([3]; 6.0 mg/kg i.v., 20 min): +0.5% | Changes (%) of basal values, aortic blood flow ([3]; 6.0 mg/kg i.v., 30 min): 0% | Changes (%) of basal values, aortic blood flow ([3]; 6.0 mg/kg i.v., 40 min): 0% | Changes (%) of basal values, aortic blood flow ([3]; 6.0 mg/kg i.v., imm.): +12.0% | Changes (%) of basal values, aortic blood flow ([3]; 20.0 mg/kg i.v., 1 min): +16.3% | Changes (%) of basal values, aortic blood flow ([3]; 20.0 mg/kg i.v., 5 min): -3.8% | Changes (%) of basal values, aortic blood flow ([3]; 20.0 mg/kg i.v., 10 min): -4.0% | Changes (%) of basal values, aortic blood flow ([3]; 20.0 mg/kg i.v., 20 min): -3.4% | Changes (%) of basal values, aortic blood flow ([3]; 20.0 mg/kg i.v., 30 min): -1.8% | Changes (%) of basal values, aortic blood flow ([3]; 20.0 mg/kg i.v., 40 min): -0.3% | Changes (%) of basal values, aortic blood flow ([3]; 20.0 mg/kg i.v., imm.): +27.4% | Effects on aortic blood flow (in words) ([3]; i.v., anesthetized dogs): an increase in blood flow immediately after administration, followed by a decrease in blood flow | Changes (%) of basal values, arterial mean blood pressure ([4]; 2.0 mg/kg i.v., 1 min): +1.6% | Changes (%) of basal values, arterial mean blood pressure ([4]; 2.0 mg/kg i.v., 5 min): -3.0% | Changes (%) of basal values, arterial mean blood pressure ([4]; 2.0 mg/kg i.v., 10 min): -1.5% | Changes (%) of basal values, arterial mean blood pressure ([4]; 2.0 mg/kg i.v., 20 min): -0.5% | Changes (%) of basal values, arterial mean blood pressure ([4]; 2.0 mg/kg i.v., 30 min): 0% | Changes (%) of basal values, arterial mean blood pressure ([4]; 2.0 mg/kg i.v., 40 min): 0% | Changes (%) of basal values, arterial mean blood pressure ([4]; 2.0 mg/kg i.v., imm.): -13.6% | Changes (%) of basal values, arterial mean blood pressure ([4]; 6.0 mg/kg i.v., 1 min): -9.7% | Changes (%) of basal values, arterial mean blood pressure ([4]; 6.0 mg/kg i.v., 5 min): -10.3% | Changes (%) of basal values, arterial mean blood pressure ([4]; 6.0 mg/kg i.v., 10 min): -10.0% | Changes (%) of basal values, arterial mean blood pressure ([4]; 6.0 mg/kg i.v., 20 min): -6.0% | Changes (%) of basal values, arterial mean blood pressure ([4]; 6.0 mg/kg i.v., 30 min): -3.0% | Changes (%) of basal values, arterial mean blood pressure ([4]; 6.0 mg/kg i.v., 40 min): -1.0% | Changes (%) of basal values, arterial mean blood pressure ([4]; 6.0 mg/kg i.v., imm.): -36.1% | Changes (%) of basal values, arterial mean blood pressure ([4]; 20.0 mg/kg i.v., 1 min): -19.7% | Changes (%) of basal values, arterial mean blood pressure ([4]; 20.0 mg/kg i.v., 5 min): -14.4% | Changes (%) of basal values, arterial mean blood pressure ([4]; 20.0 mg/kg i.v., 10 min): -13.5% | Changes (%) of basal values, arterial mean blood pressure ([4]; 20.0 mg/kg i.v., 20 min): -8.3% | Changes (%) of basal values, arterial mean blood pressure ([4]; 20.0 mg/kg i.v., 30 min): -5.1% | Changes (%) of basal values, arterial mean blood pressure ([4]; 20.0 mg/kg i.v., 40 min): -3.1% | Changes (%) of basal values, arterial mean blood pressure ([4]; 20.0 mg/kg i.v., imm.): -45.0% | Effects on arterial mean blood pressure (in words) ([4]; i.v., anesthetized dogs): hypotensive effects being proportioned to their doses which were of long duration | Changes(%) of basal values, heart rate ([5]; 2.0 mg/kg i.v., 1 min): +1.0% | Changes(%) of basal values, heart rate ([5]; 2.0 mg/kg i.v., 5 min): 0% | Changes(%) of basal values, heart rate ([5]; 2.0 mg/kg i.v., 10 min): 0% | Changes(%) of basal values, heart rate ([5]; 2.0 mg/kg i.v., 20 min): 0% | Changes(%) of basal values, heart rate ([5]; 2.0 mg/kg i.v., 30 min): 0% | Changes(%) of basal values, heart rate ([5]; 2.0 mg/kg i.v., 40 min): 0% | Changes(%) of basal values, heart rate ([5]; 2.0 mg/kg i.v., imm.): -0.6% | Changes(%) of basal values, heart rate ([5]; 6.0 mg/kg i.v., 1 min): +1.5% | Changes(%) of basal values, heart rate ([5]; 6.0 mg/kg i.v., 5 min): -0.9% | Changes(%) of basal values, heart rate ([5]; 6.0 mg/kg i.v., 10 min): -1.6% | Changes(%) of basal values, heart rate ([5]; 6.0 mg/kg i.v., 20 min): -1.0% | Changes(%) of basal values, heart rate ([5]; 6.0 mg/kg i.v., 30 min): -0.5% | Changes(%) of basal values, heart rate ([5]; 6.0 mg/kg i.v., 40 min): 0% | Changes(%) of basal values, heart rate ([5]; 6.0 mg/kg i.v., imm.): -1.5% | Changes(%) of basal values, heart rate ([5]; 20.0 mg/kg i.v., 1 min): -3.1% | Changes(%) of basal values, heart rate ([5]; 20.0 mg/kg i.v., 5 min): -3.5% | Changes(%) of basal values, heart rate ([5]; 20.0 mg/kg i.v., 10 min): -3.9% | Changes(%) of basal values, heart rate ([5]; 20.0 mg/kg i.v., 20 min): -2.8% | Changes(%) of basal values, heart rate ([5]; 20.0 mg/kg i.v., 30 min): -1.3% | Changes(%) of basal values, heart rate ([5]; 20.0 mg/kg i.v., 40 min): -0.5% | Changes(%) of basal values, heart rate ([5]; 20.0 mg/kg i.v., imm.): -14.5% | Effects on heart rate (in words) ([5]; i.v., anesthetized dogs): a slight negative chronotropic effect
